Holding throughout (assay): NCI anticancer screen, dose series, 48 h
Assay [1] deals with CCRF-CEM leukemia.
For assay [2], the system named is SW-620 colon.
Assay [3] has as its system LOX IMVI melanoma.
The test system of assay [4] is BT-549 breast.
The test system of assay [5] is 786-0 renal.
Assay [6] has as its system HT29 colon.
Assay [7] concerns HOP-92 NSCLC.
The test system of assay [8] is U251 CNS.
Assay [9] concerns ACHN renal.
The test system of assay [10] is PC-3 prostate.

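How tested: cells in 96-well plates exposed to compound for 48 hours at five concentrations. GI50 marks 50% less growth. Definition used: TGI = concentration required for complete inhibition of growth.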

For the compound `O=C(Nc1nc(-c2ccccc2)cs1)c1cc(O)c(O)c(O)c1`, the GI50 was 0.687 µM in [1]; 2.66 µM in assay [2]; 3.62 µM in [3]; 3.46 µM in [4]; 3.38 µM in [5]; 5.95 µM in assay [6]. The results for the GI50 in assay [7], in assay [8] and in [9] were 1.56 µM, 2.88 µM and 2.47 µM, respectively. Also, the TGI in assay [1] stood at 10.5 µM; in assay [2] it was 37.4 µM; in [3] it was 32.1 µM; in [4] it was 31.4 µM; in [5], 10.6 µM; in [6] it was 44.1 µM. The results for the TGI in assay [7], in assay [8] and in [9] were 9.66 µM, 21 µM and 56.3 µM, respectively.
As for `NC(=S)N/N=C/c1ccc(OC(=O)COc2ccccc2)cn1`, the GI50 in assay [1] is 1.58 µM; in assay [2] it was 5.02 µM; in assay [10], 5.34 µM; in assay [3] it was 3.48 µM; in assay [4] it was 26.4 µM; in assay [5], 3.89 µM. The GI50 in [6] is 39 µM; in [8], 4.15 µM; in assay [9] it was 3.65 µM. Further, the TGI in [1], in assay [2], in [10], in assay [3], in assay [4] and in assay [5] was above 100 µM in each case. Further, the TGI in [6], in [8] and in assay [9] was above 100 µM in each case.
For `C[C@@H]1CC[C@@H]2[C@@H]1[C@H](OC(=O)c1ccc3ccccc3c1)[C@]1(C3CCCCC3)C[C@@H](OC(=O)CO)[C@@]2(C)O1`, the GI50 is 5.36 µM in assay [1]; 13 µM in assay [2]; 4.2 µM in assay [10]; 13.1 µM in [3]; 0.0714 µM in assay [4]; 5.41 µM in assay [5]. The GI50 is 4.38 µM in assay [6], 3.15 µM in assay [7] and 10.9 µM in assay [8]. Further, the TGI in assay [1] is 23.6 µM; in assay [2] it was 30.4 µM; in [10], 19.2 µM; in [3], 28.1 µM; in [4], 1.56 µM; in assay [5] it was 20 µM. Besides, the TGI in assay [6] was found to be 18.3 µM; in assay [7], 15.4 µM; in assay [8], 23 µM.
With `C=C(CN(C)Cc1ccccc1)c1ccc(C(=O)Nc2ccccc2N)cc1`, the GI50 in assay [2] was 6.08 µM; in assay [10], 4.95 µM; in assay [3], 1.05 µM; in assay [4] it was 1.48 µM; in assay [5] it was 5.21 µM; in [7], 3.36 µM. In addition, the GI50 in [8] is 3.34 µM. In addition, the TGI was above 50 µM in assay [2]; above 50 µM in assay [10]; 3.69 µM in [3]; 10.1 µM in assay [4]; 27.3 µM in assay [5]; 24.5 µM in assay [7]. This compound came in with a TGI in assay [8] of 13.8 µM.
Consider `CCCC(CCC)Oc1ccc(CCCC2=C(O)c3ccccc3C(=O)C2=O)cc1`, for which the GI50 in assay [1] was 2.9 µM; in [2], 4.61 µM; in [10] it was 3 µM; in assay [3], 3.34 µM; in [4] it was 8.74 µM; in assay [5], 4.11 µM. The GI50 is 6.2 µM in [6], 5.37 µM in assay [8] and 6.69 µM in assay [9]. Besides, the TGI in [1] came to 17.1 µM; in assay [2], 17 µM; in assay [10] it was 15.7 µM; in [3], 10.5 µM; in assay [4], 20.9 µM; in assay [5], 16.8 µM. For the same compound, the TGI in assay [6] came to 17.9 µM; in [8] it was 17.5 µM; in assay [9], 19 µM.
In the case of `CCCCCCCC(=O)NS(=O)(=O)c1ccccc1`, the TGI in assay [1], in [2], in assay [10], in [3], in assay [4] and in [5] was above 100 µM in each case. In addition, the TGI in [6], in [8] and in assay [9] was above 100 µM each time.
As to `Clc1ccc(-c2nc(C(Cl)Cl)nc3cc(-c4ccccc4)nn23)cc1`, the GI50 in assay [1] is above 50 µM; in assay [2], 1.01 µM; in assay [10], 1.74 µM; in assay [3] it was above 50 µM; in assay [4], above 50 µM; in assay [5], above 50 µM. The GI50 in assay [6] is 0.751 µM; in [7], 1.25 µM; in assay [8], 1.12 µM. The TGI in [1], in assay [2], in assay [10], in [3], in assay [4] and in assay [5] was above 50 µM in each case. Besides, the TGI in assay [6], in assay [7] and in assay [8] was above 50 µM throughout.
Take `COC1C(O)CC(OC2CC(OC3CC(O[C@@H]4C(=O)c5c(cc6cc(OC7CC(OC8CC(O)C(O)C(C)O8)C(O)C(C)O7)c(C)c(O)c6c5O)C[C@H]4[C@H](OC)C(=O)[C@@H](O)[C@@H](C)O)OC(C)C3O)OC(C)C2O)OC1C` (stereo not given in full): the GI50 was 0.0329 µM in [1] and 0.0164 µM in assay [3]. Further, the TGI was above 100 µM in assay [1]; above 100 µM in [2]; above 100 µM in assay [3]; 11.2 µM in assay [4]; above 100 µM in assay [5]; above 56 µM in assay [6]. Also, the TGI is 1.06 µM in [7], above 9.45 µM in [8] and above 100 µM in assay [9].
`COC(=O)C1=CO[C@@H](OC2OC(CO)C(O)C(O)C2O)[C@@H]2[C@H](C)[C@@H](O)[C@@H](O)[C@]12O` (stereo not given in full): the TGI in [2], in assay [10], in assay [3], in assay [4], in assay [5] and in [6] was above 100 µM throughout. The TGI in assay [7], in [8] and in [9] was above 100 µM throughout.
Consider `COc1cc2c(c(OC)c1OC)C(=O)c1c-2n(CCCN=[N+]=[N-])c(=O)c2cc([N+](=O)[O-])ccc12`, for which the GI50 in assay [2] was above 100 µM; in assay [3], above 100 µM; in assay [4] it was 27.3 µM; in assay [5], 41 µM; in assay [6], above 100 µM; in assay [8] it was 58 µM. Moreover, the TGI in assay [2], in assay [3], in assay [4], in assay [5], in assay [6] and in assay [8] was above 100 µM throughout.

For the origin of these results see PubChem BioAssay (NCI).
